Data published in PubChem BioAssay (NCI).
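Results reflect a 48-hour exposure of cells in 96-well plates to compound at five concentrations. Here, GI50 denotes the concentration required for 50% inhibition of growth. TGI is the concentration that stops growth completely.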

Key:
Assay in all cases: NCI-60 cell line screen, 48 h
[1] = system: 786-0 renal
[2] = system: A498 renal
[3] = system: A549 NSCLC
[4] = system: ACHN renal
[5] = system: BT-549 breast
[6] = system: CAKI-1 renal
[7] = system: COLO 205 colon
[8] = system: DU-145 prostate
[9] = system: EKVX NSCLC
[10] = system: HCC-2998 colon
[11] = system: HCT-116 colon
[12] = system: HCT-15 colon
[13] = system: HL-60(TB) leukemia
[14] = system: HOP-62 NSCLC
[15] = system: HOP-92 NSCLC
[16] = system: HS 578T breast
[17] = system: IGROV1 ovarian
[18] = system: K-562 leukemia
[19] = system: KM12 colon
[20] = system: LOX IMVI melanoma
[21] = system: M14 melanoma
[22] = system: MCF7 breast
[23] = system: MDA-MB-231 breast
[24] = system: MDA-MB-435
[25] = system: NCI-H23 lung
[26] = system: NCI-H460 lung
[27] = system: NCI-H522 lung
[28] = system: NCI/ADR-RES ovarian
[29] = system: OVCAR-3 ovarian
[30] = system: OVCAR-5 ovarian
[31] = system: OVCAR-8 ovarian
[32] = system: PC-3 prostate
[33] = system: RPMI-8226 leukemia
[34] = system: SF-268 CNS
[35] = system: SF-295 CNS
[36] = system: SF-539 CNS
[37] = system: SK-MEL-2 melanoma
[38] = system: SK-MEL-28 melanoma
[39] = system: SK-MEL-5 melanoma
[40] = system: SK-OV-3 ovarian
[41] = system: SN12C renal
[42] = system: SNB-19 CNS
[43] = system: SR leukemia
[44] = system: SW-620 colon
[45] = system: T-47D breast
[46] = system: TK-10 renal
[47] = system: U251 CNS
[48] = system: UACC-257 melanoma
[49] = system: UACC-62 melanoma
[50] = system: UO-31 renal

With CCSc1nc(N)c(C#N)c(-c2ccc(OC)c(OC)c2)c1C#N the GI50 [1] was 15.7 µM, the TGI [1] was 49.3 µM and the GI50 [2] was 15.8 µM. For the same compound, the TGI [2] was 40.7 µM, the GI50 [3] was 17 µM and the TGI [3] was over 50 µM. It also gave a GI50 [4] of over 50 µM, a TGI [4] of over 50 µM and a GI50 [5] of 39.5 µM. For the same compound, the TGI [5] was over 50 µM, the GI50 [6] was 16.6 µM and the TGI [6] was over 50 µM. It also gave a GI50 [7] of 17.5 µM, a TGI [7] of over 50 µM and a GI50 [8] of 30.7 µM. For the same compound, the TGI [8] was over 50 µM, the GI50 [9] was 32.2 µM and the TGI [9] was over 50 µM. The GI50 [10] was 37.9 µM, the TGI [10] was over 50 µM and the GI50 [11] was 16.4 µM. For the same compound, the TGI [11] was 47.5 µM, the GI50 [12] was over 50 µM and the TGI [12] was over 50 µM. The GI50 [13] was 21.8 µM, the TGI [13] was over 50 µM and the GI50 [14] was 18.4 µM. For the same compound, the TGI [14] was over 50 µM, the GI50 [15] was 6.49 µM and the TGI [15] was over 50 µM. It also gave a GI50 [16] of 13.1 µM, a TGI [16] of 43.7 µM and a GI50 [17] of 5.85 µM. The TGI [17] was 43.6 µM, the GI50 [18] was 10.7 µM and the TGI [18] was 27.7 µM. For the same compound, the GI50 [19] was 15.2 µM, the TGI [19] was over 50 µM and the GI50 [20] was 14.9 µM. It also gave a TGI [20] of 48.2 µM, a GI50 [21] of 18.7 µM and a TGI [21] of 45.7 µM. The GI50 [22] was 10.6 µM, the TGI [22] was over 50 µM and the GI50 [23] was 11.7 µM. It also gave a TGI [23] of 48.9 µM, a GI50 [24] of 3.85 µM and a TGI [24] of 22.5 µM. The GI50 [25] was 40.3 µM, the TGI [25] was over 50 µM and the GI50 [26] was 13.8 µM. It also gave a TGI [26] of 44.1 µM, a GI50 [27] of 10.2 µM and a TGI [27] of 35.2 µM. The GI50 [28] was 21.9 µM, the TGI [28] was over 50 µM and the GI50 [29] was 26 µM. For the same compound, the TGI [29] was over 50 µM, the GI50 [30] was over 50 µM and the TGI [30] was over 50 µM. For the same compound, the GI50 [31] was 15.5 µM, the TGI [31] was 45.1 µM and the GI50 [32] was 10.4 µM. The TGI [32] was over 50 µM, the GI50 [33] was 14.8 µM and the TGI [33] was over 50 µM. For the same compound, the GI50 [34] was 11.1 µM, the TGI [34] was 35.1 µM and the GI50 [35] was 19.1 µM. It also gave a TGI [35] of over 50 µM, a GI50 [36] of 19 µM and a TGI [36] of 40.3 µM. It also gave a GI50 [37] of 13.3 µM, a TGI [37] of over 50 µM and a GI50 [38] of over 50 µM. For the same compound, the TGI [38] was over 50 µM, the GI50 [39] was 8.36 µM and the TGI [39] was 29.5 µM. For the same compound, the GI50 [40] was 15.4 µM, the TGI [40] was over 50 µM and the GI50 [41] was 15.1 µM. The TGI [41] was over 50 µM, the GI50 [42] was 24.7 µM and the TGI [42] was over 50 µM. For the same compound, the GI50 [43] was 11.8 µM, the TGI [43] was 37.6 µM and the GI50 [44] was 25.4 µM. For the same compound, the TGI [44] was over 50 µM, the GI50 [45] was over 50 µM and the TGI [45] was over 50 µM. For the same compound, the GI50 [46] was 49.6 µM, the TGI [46] was over 50 µM and the GI50 [47] was 17.6 µM. The TGI [47] was over 50 µM, the GI50 [48] was 9.13 µM and the TGI [48] was over 50 µM. For the same compound, the GI50 [49] was 8.65 µM, the TGI [49] was 45.2 µM and the GI50 [50] was 15.9 µM. For the same compound, the TGI [50] was over 50 µM.
